Data on five molecules can be found in patent US20220289720A1, “ARYL SULFONAMIDES AS SMALL MOLECULE STAT3 INHIBITORS” (UNIVERSITY OF HAWAII, priority 2019, published 2022).

Data set [1] has as its system Stat3 DNA-binding activity in MDA-MB-231 cells. Description: EMSA of nuclear extracts from treated human breast cancer cells (intracellular Stat3 signaling). In kind it is cell-based. The note with it: 0.5, 1, 2, 3, 4, 5 and 10 μM, 0-72 h. How it is done:
Nuclear extract preparation, gel shift assays, and densitometric analysis. […] The ^32P-labeled oligonucleotide probes used were hSIE (high affinity sis-inducible element from the c-fos gene, m67 variant, 5′-[…]) (SEQ ID NO: 1) that binds Stat1 and Stat3 and MGFe (mammary gland factor element from the bovine β-casein gene promoter, 5′-[…]) (SEQ ID NO: 2) for Stat1 and Stat5 binding. Except where indicated, nuclear extracts were pre-incubated with compound for 30 min at room temperature prior to incubation with the radiolabeled probe for 30 min at 30° C. before subjecting to EMSA analysis. Where appropriate, bands corresponding to Stat3:DNA complexes were scanned and quantified for each concentration of compound using ImageJ and plotted as percent of control (DMSO) against concentration of compound, from which the IC50 values were derived.
Aryl sulfonamido azetidine compounds were investigated for their inhibitory effects of the active analogs on intracellular Stat3 signaling. […] Nuclear extracts are prepared and subjected to EMSA analysis for Stat3 DNA-binding activity. […] Stat3 DNA-binding activity in MDA-MB-231 cells, is inhibited by the compounds following treatment as measured periodically up to 72 h.
In general terms: Mobility shift assays separate free from complexed probe on a gel.

A further data set has as its system MDA-MB-231. Put plainly: Cell growth by trypan blue exclusion/phase-contrast microscopy. In kind it is cell-based. The note with it: Homo sapiens, MDA-MB-231, read-out: IC50, MDA-MB-231 cell growth. How it is done:
FIGS. 1A-1N. Show the effects of aryl sulfonamido azetidine compounds on cell viability in vitro relative to control (untreated cells). […] Cells in 6-well plates were treated once with 0.05% DMSO, or at the indicated concentrations (0.5, 1, 2, 3, 4, 5 and 10 μM if not otherwise so indicated) of the test compounds. […] The compound names are correlated with the structures provided in the Examples in Table 1.
Cell proliferation and viability assay. […] Cells in 6-well or 96-well plates were treated with or without compounds for the indicated concentrations and time, and subjected to MTT assay or CyQuant cell proliferation assay (Invitrogen/ThermoFisher Scientific), or harvested and the viable cells were counted by trypan blue exclusion with phase-contrast microscopy.
Constitutive Stat3 activity promotes tumor cell growth and proliferation and survival (Darnell J E (2005) Nat Med. 11:595-6; Bowman T, et al., (2000) Oncogene 19:2474-2488). An aryl sulfonamido azetidine compound, H182, was tested against tumor cells harboring constitutively-active Stat3.

Data set [2] concerns subcutaneous MDA-MB-231 tumor xenografts. Description: Growth of subcutaneous MDA-MB-231 tumor xenografts. In kind it is in vivo, mouse. The note with it: 10 mg/kg every other day, intraperitoneally, vs vehicle control. How it is done: (§1) (5 mice per group). The subjects were administered intraperitoneally.
The nature of data set [3]: Body weight of treated mice in the xenograft study. The class given is in vivo, mouse. The note with it: 10 mg/kg every other day, intraperitoneally, treated vs untreated mice. How it is done: as §1
A further data set deals with Stat3 (Mus musculus, UniProt P42227). Description: Stat3 DNA-binding activity in vitro, electrophoretic mobility shift assay (EMSA) on nuclear extracts. The class given is biochemical. As to conditions: nuclear extracts containing activated Stat3 pre-incubated with compound 30 min at room temperature, radiolabeled hSIE probe. How it is done:
FIGS. 3A-3D. show the effect of aryl sulfonamido compounds described herein on Stat3 DNA-binding activity in vitro. […] Positions of Stat3:DNA complexes in gel are labeled; control lanes (0) represent nuclear extracts pre-treated with 10% DMSO.
Nuclear extract preparation, gel shift assays, and densitometric analysis. […] Except where indicated, nuclear extracts were pre-incubated with compound for 30 min at room temperature prior to incubation with the radiolabeled probe for 30 min at 30° C. before subjecting to EMSA analysis. Where appropriate, bands corresponding to Stat3:DNA complexes were scanned and quantified for each concentration of compound using ImageJ and plotted as percent of control (DMSO) against concentration of compound, from which the IC50 values were derived.
The inhibitory activities of the representative analogs against in vitro Stat3 DNA-binding activity, as measured by electrophoretic mobility shift assay (EMSA) for representative compounds from the Examples above are shown in FIGS. 3A-3D and summarized in Table 1.
Table 1. Stat3 DNA-binding activity in vitro of aryl sulfonamido compounds described herein, including their corresponding referenced names (e.g., H203), as measured by electrophoretic mobility shift assay (EMSA). The inhibition metrics are presented in units of micromolar (μM).

Sequence of Stat3 (P42227 2-770): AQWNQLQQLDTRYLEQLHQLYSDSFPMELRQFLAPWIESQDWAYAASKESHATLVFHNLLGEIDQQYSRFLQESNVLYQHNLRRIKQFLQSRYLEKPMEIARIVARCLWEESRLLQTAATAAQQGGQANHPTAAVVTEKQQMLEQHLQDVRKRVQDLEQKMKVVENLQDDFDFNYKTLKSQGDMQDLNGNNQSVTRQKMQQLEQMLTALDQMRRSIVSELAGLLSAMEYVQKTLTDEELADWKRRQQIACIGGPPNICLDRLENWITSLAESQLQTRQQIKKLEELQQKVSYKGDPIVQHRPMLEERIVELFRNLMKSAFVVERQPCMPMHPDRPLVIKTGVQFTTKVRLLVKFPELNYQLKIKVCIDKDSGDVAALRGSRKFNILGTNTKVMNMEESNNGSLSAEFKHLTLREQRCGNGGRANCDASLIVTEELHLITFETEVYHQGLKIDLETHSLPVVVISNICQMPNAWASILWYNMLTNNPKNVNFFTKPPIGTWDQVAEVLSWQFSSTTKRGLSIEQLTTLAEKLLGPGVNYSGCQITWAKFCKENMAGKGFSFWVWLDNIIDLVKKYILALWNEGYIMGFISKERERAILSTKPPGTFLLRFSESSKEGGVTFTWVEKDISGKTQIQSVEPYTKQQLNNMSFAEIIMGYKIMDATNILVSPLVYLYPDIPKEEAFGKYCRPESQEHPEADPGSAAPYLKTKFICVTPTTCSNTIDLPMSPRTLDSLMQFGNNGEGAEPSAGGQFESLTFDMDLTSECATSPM

As a reminder, the IC50 is the concentration that gives 50% inhibition. As to `O=C([C@H]1CCN1S(=O)(=O)c1c(F)c(F)c(F)c(F)c1F)N(Cc1ccc(C2CCCCC2)cn1)c1ccc2c(=O)[nH]cnc2c1` [Example H182], the “Stat3 DNA-binding activity in MDA-MB-231 cells” value in data set [1] was “inhibited”. In addition, in the data set on MDA-MB-231, the IC50 was less than 10000 nM. In data set [2], the tumor growth entry is reported as “reduce the tumor growth rate”. The body weight result in data set [3] was “maintaining subject body weight”.

Take `O=C([C@H]1CCN1S(=O)(=O)c1c(F)c(F)c(F)c(F)c1F)N(Cc1ccc(C2CCCCC2)nc1)c1ccc2c(=O)[nH]ncc2c1` [Example H172]: in data set [1], the “Stat3 DNA-binding activity in MDA-MB-231 cells” value is “inhibited”.

As for `Cn1cnc2cc(N(Cc3ccc(C4CCCCC4)cn3)C(=O)[C@H]3CCN3S(=O)(=O)c3c(F)c(F)c(F)c(F)c3F)ccc2c1=O` [Example 23, (R)—N-((5-cyclohexylpyridin-2-yl)methyl)-N-(3-methyl-4-oxo-3,4-dihydroquinazolin-7-yl)-1-((perfluorophenyl)sulfonyl)azetidine-2-carboxamide], the 50% inhibitory concentration (IC50) at Stat3 amounted to 1150 ± 40 nM.

On to `Cn1ccc2cc(N(Cc3ccc(C4CCCCC4)cn3)C(=O)[C@H]3CCN3S(=O)(=O)c3c(F)c(F)c(F)c(F)c3F)ccc2c1=O` [Example 22, (R)—N-((5-cyclohexylpyridin-2-yl)methyl)-N-(2-methyl-1-oxo-1,2-dihydroisoquinolin-6-yl)-1-((perfluorophenyl)sulfonyl)azetidine-2-carboxamide], for which the IC50 on Stat3 came out at 866 ± 85 nM.

In the case of `O=C([C@H]1CCN1S(=O)(=O)c1c(F)c(F)c(F)c(F)c1F)N(Cc1ccc(C2CCCCC2)cn1)c1ccc2c(=O)[nH]ccc2c1` [Example 25, (R)—N-((5-cyclohexylpyridin-2-yl)methyl)-N-(1-oxo-1,2-dihydroisoquinolin-6-yl)-1-((perfluorophenyl)sulfonyl)azetidine-2-carboxamide], at Stat3, the IC50 was 788 ± 39 nM.
